Assay [1] deals with IKKe (Homo sapiens (Human), UniProt Q14164). The assay can be described thus: IKKe Biochemical Assay. In short, it runs like this:
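Human IKKε activity was measured with compounds in a 10-point 1:4 dilution series, top concentration 30 uM final, in 1% DMSO final; 10 uM staurosporine served as the control. Enzyme and substrate were incubated 90 min at 25° C, then stopped, and substrate/product peaks were separated by microfluidic mobility-shift on a LabChip EZ Reader II.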

For assay [2], the target named is TBK1 (Homo sapiens (Human), UniProt Q9UHD2). In words: TBK Biochemical Assay. In short, it runs like this: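 Enzyme and substrate with compound (10-point 1:4 series, top 30 uM final, 1% DMSO) incubated 90 min at 25 °C, then stopped; substrate/product separated and read by LabChip mobility-shift, staurosporine 10 uM final as full-inhibition control.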

For 18 molecules, IC50 results are on record in patent US11440899B2, “Pyrimidine TBK/IKKe inhibitor compounds and uses thereof” (Merck Patent GmbH, priority 2017, dated 2022).

Counter-ions that a name gives are not always drawn. A value given as a limit tells only on which side of the number the result lay.

TBK1, sequence (Q9UHD2 whole entry, species assumed): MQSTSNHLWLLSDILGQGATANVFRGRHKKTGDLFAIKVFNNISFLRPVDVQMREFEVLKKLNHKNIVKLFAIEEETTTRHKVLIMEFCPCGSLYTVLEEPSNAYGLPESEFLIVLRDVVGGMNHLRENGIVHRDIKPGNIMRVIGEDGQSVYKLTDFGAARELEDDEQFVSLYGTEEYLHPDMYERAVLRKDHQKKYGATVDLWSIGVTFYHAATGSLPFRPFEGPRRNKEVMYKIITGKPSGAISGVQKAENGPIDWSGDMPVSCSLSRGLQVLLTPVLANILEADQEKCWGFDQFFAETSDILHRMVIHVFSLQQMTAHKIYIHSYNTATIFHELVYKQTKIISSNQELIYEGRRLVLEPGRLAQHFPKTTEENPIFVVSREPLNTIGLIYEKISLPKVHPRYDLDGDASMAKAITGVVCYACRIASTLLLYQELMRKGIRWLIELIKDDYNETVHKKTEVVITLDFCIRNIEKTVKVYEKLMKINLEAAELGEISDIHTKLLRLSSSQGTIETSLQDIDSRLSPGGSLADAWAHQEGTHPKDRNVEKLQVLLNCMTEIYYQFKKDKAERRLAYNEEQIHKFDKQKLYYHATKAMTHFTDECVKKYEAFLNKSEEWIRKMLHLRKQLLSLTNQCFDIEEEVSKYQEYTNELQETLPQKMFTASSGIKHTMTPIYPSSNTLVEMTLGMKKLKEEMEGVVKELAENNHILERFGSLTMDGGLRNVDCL
IKKe, sequence (Q14164 whole entry, species assumed): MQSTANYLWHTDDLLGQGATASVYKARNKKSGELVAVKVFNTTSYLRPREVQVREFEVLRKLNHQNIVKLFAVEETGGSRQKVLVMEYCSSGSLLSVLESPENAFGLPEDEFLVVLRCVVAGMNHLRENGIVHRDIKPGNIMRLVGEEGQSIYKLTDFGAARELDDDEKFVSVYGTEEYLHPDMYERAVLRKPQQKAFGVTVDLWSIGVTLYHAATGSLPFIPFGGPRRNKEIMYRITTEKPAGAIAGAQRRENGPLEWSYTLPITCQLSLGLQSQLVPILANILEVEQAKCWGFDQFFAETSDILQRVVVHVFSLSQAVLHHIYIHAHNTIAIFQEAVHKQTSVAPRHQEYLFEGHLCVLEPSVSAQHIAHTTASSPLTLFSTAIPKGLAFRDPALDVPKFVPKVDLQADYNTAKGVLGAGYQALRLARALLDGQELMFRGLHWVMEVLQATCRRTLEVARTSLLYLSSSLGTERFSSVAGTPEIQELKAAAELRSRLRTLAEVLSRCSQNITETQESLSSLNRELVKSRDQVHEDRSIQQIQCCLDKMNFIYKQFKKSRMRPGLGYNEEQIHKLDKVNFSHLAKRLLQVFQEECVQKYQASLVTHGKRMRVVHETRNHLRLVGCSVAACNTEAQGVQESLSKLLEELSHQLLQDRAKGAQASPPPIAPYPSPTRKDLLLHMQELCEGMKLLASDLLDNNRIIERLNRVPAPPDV

The IC50 is the concentration that gives 50% inhibition. Low readings indicate greater potency in that assay, high ones weaker potency in that assay. `COc1nc(Nc2cc(-c3ccc(OC4CCN(C(=O)c5cnco5)CC4)c(C#N)c3)ncn2)ccc1C(=O)N(C)C` [Example 43, 6-([6-[3-cyano-4-([1-[(1,3-oxazol-5-yl)carbonyl]piperidin-4-yl]oxy)phenyl]pyrimidin-4-yl]amino)-2-methoxy-N,N-dimethylpyridine-3-carboxamide]: the IC50 in assay [1] and in assay [2] was less than 100 nM throughout.

With `COc1cc(Nc2cc(-c3ccc(OC4CCOCC4)c(C#N)c3)ncn2)cnc1C(=O)N(C)C` [Example 32, 5-([6-[3-cyano-4-(oxan-4-yloxy)phenyl]pyrimidin-4-yl]amino)-3-methoxy-N,N-dimethylpyridine-2-carboxamide], the IC50 in assay [1] and in assay [2] was 1000 to 5000 nM each time.

Turning to `COc1nc(Nc2cc(-c3ccc(OC4CCN(C)CC4(F)F)c(C#N)c3)ncn2)ccc1N1CCN(C)CC1` (stereo not drawn) [Example 58, 2-[(3,3-difluoro-1-methylpiperidin-4-yl)oxy]-5-(6-[[6-methoxy-5-(4-methylpiperazin-1-yl)pyridin-2-yl]amino]pyrimidin-4-yl)benzonitrile], the IC50 in assay [1] and in assay [2] was less than 100 nM throughout.

For `COc1nc(Nc2cc(-c3ccc(OC4CCN(C(=O)[C@@H](C)O)CC4(F)F)c(C#N)c3)ncn2)ccc1N1CCN(C)[C@H](C)C1` (stereo partly drawn) [Example 75, 2-([3,3-difluoro-1-[(2R)-2-hydroxypropanoyl]piperidin-4-yl]oxy)-5-[6-([5-[(3R)-3,4-dimethylpiperazin-1-yl]-6-methoxypyridin-2-yl]amino)pyrimidin-4-yl]benzonitrile hydrochloride], the IC50 in assay [1] and in assay [2] was less than 100 nM each time.

Take `COc1nc(Nc2cc(-c3ccc(OC4CCOCC4)c(C#N)c3)ncn2)ccc1N(C)CC(=O)N(C)C` [Example 13, 2-[[6-([6-[3-cyano-4-(oxan-4-yloxy)phenyl]pyrimidin-4-yl]amino)-2-methoxypyridin-3-yl](methyl)amino]-N,N-dimethylacetamide]: the IC50 in assay [1] and in assay [2] was less than 100 nM throughout.

In the case of `COc1nc(Nc2cc(-c3ccc(O[C@@H]4CCN(C(=O)[C@@H](C)O)CC4(F)F)c(C#N)c3)ncn2)ccc1N1CCN(C2COC2)C[C@@H]1C` [Example 98, 2-((R)-3,3-difluoro-1-((R)-2-hydroxypropanoyl)piperidin-4-yloxy)-5-(6-(6-methoxy-5-((S)-2-methyl-4-(oxetan-3-yl)piperazin-1-yl)pyridin-2-ylamino)pyrimidin-4-yl)benzonitrile], the IC50 in assay [1] and in assay [2] was less than 100 nM throughout.

Turning to `COc1nc(Nc2cc(-c3ccc(OC4CCN(C(=O)[C@@H](C)O)CC4(F)F)c(C#N)c3)ncn2)ccc1N1CCN(C)[C@@H](C)C1` (stereo partly drawn) [Example 81, 2-([3,3-difluoro-1-[(2R)-2-hydroxypropanoyl]piperidin-4-yl]oxy)-5-[6-([5-[(3S)-3,4-dimethylpiperazin-1-yl]-6-methoxypyridin-2-yl]amino)pyrimidin-4-yl]benzonitrile], the IC50 in assay [1] and in assay [2] was less than 100 nM throughout.

On to `COc1nc(Nc2cc(-c3ccc(OC4CCN(C(=O)[C@H](C)O)CC4(F)F)c(C#N)c3)ncn2)ccc1N1CCN(C)C[C@H]1C` (stereo partly drawn) [Example 65, 2-([3,3-difluoro-1-[(2S)-2-hydroxypropanoyl]piperidin-4-yl]oxy)-5-[6-([5-[(2R)-2,4-dimethylpiperazin-1-yl]-6-methoxypyridin-2-yl]amino)pyrimidin-4-yl]benzonitrile hydrochloride], for which the half-maximal inhibitory concentration (IC50) in assay [1] and in assay [2] was less than 100 nM each time.

As to `COc1nc(Nc2cc(-c3ccc(O[C@H]4CCN(C(=O)CO)CC4(F)F)c(C#N)c3)ncn2)ccc1N1CCN(C)CC1` [Example 60, 2-[[(4S)-3,3-difluoro-1-(2-hydroxyacetyl)piperidin-4-yl]oxy]-5-(6-[[6-methoxy-5-(4-methylpiperazin-1-yl)pyridin-2-yl]amino]pyrimidin-4-yl)benzonitrile], the IC50 in assay [1] and in assay [2] was less than 100 nM in each case.

In the case of `COc1nc(Nc2cc(-c3cc(C#N)c(OC4CCOCC4)cn3)ncn2)ccc1C(=O)N(C)C` [Example 26, 6-([6-[4-cyano-5-(oxan-4-yloxy)pyridin-2-yl]pyrimidin-4-yl]amino)-2-methoxy-N,N-dimethylpyridine-3-carboxamide], the IC50 in assay [1] and in assay [2] was less than 100 nM in each case.

With `COc1nc(Nc2cc(-c3ccc(OC4CCN(C(=O)CO)CC4)c(C#N)c3)ncn2)ccc1N1CCN(C)CC1` [Example 52, 2-[[1-(2-hydroxyacetyl)piperidin-4-yl]oxy]-5-(6-[[6-methoxy-5-(4-methylpiperazin-1-yl)pyridin-2-yl]amino]pyrimidin-4-yl)benzonitrile], the IC50 in assay [1] and in assay [2] was less than 100 nM in each case.

As for `COc1nc(Nc2cc(-c3ccc(OC4CCOCC4)c(C#N)n3)ncn2)ccc1C1CCN(C)CC1` [Example 25, 6-(6-[[6-methoxy-5-(1-methylpiperidin-4-yl)pyridin-2-yl]amino]pyrimidin-4-yl)-3-(oxan-4-yloxy)pyridine-2-carbonitrile], the IC50 in assay [1] and in assay [2] was 1000 to 5000 nM throughout.

On to `COc1nc(Nc2cc(-c3ccc(OC4CCOCC4)c(C#N)c3)ncn2)ccc1C1CCN(C)CC1` [Example 18, 5-(6-[[6-methoxy-5-(1-methylpiperidin-4-yl)pyridin-2-yl]amino]pyrimidin-4-yl)-2-(oxan-4-yloxy)benzonitrile], for which the IC50 in assay [1] and in assay [2] was less than 100 nM in each case.

For the molecule `COc1cc(Nc2cc(-c3ccc(OC4CCOCC4)c(C#N)c3)ncn2)ncc1C(=O)N(C)C` [Example 31, 6-([6-[3-cyano-4-(oxan-4-yloxy)phenyl]pyrimidin-4-yl]amino)-4-methoxy-N,N-dimethylpyridine-3-carboxamide], the IC50 in assay [1] and in assay [2] was less than 100 nM throughout.

Regarding `COc1nc(Nc2cc(-c3ccc(OC4CCN(C)CC4)c(C#N)c3)ncn2)ccc1N1CCN(C)CC1` [Example 51, 5-(6-[[6-methoxy-5-(4-methylpiperazin-1-yl)pyridin-2-yl]amino]pyrimidin-4-yl)-2-[(1-methylpiperidin-4-yl)oxy]benzonitrile], the IC50 in assay [1] and in assay [2] was 100 to 1000 nM in each case.

Turning to `COc1nc(Nc2cc(-c3ccc(OC4CCN(C(=O)[C@H](C)O)CC4(F)F)c(C#N)c3)ncn2)ccc1N1CCN(C2COC2)C[C@@H]1C` (stereo partly drawn) [Example 72, 2-([3,3-difluoro-1-[(2S)-2-hydroxypropanoyl]piperidin-4-yl]oxy)-5-[6-([6-methoxy-5-[(2S)-2-methyl-4-(oxetan-3-yl)piperazin-1-yl]pyridin-2-yl]amino)pyrimidin-4-yl]benzonitrile], the IC50 in assay [1] and in assay [2] was less than 100 nM in each case.

Take `COc1nc(Nc2cc(-c3ccc(OC4CCOCC4)c(C#N)n3)ncn2)ccc1C(=O)N(C)C` [Example 8, 6-([6-[6-cyano-5-(oxan-4-yloxy)pyridin-2-yl]pyrimidin-4-yl]amino)-2-methoxy-N,N-dimethylpyridine-3-carboxamide]: the IC50 in assay [1] and in assay [2] was 1000 to 5000 nM in each case.

For the molecule `COc1nc(Nc2cc(-c3ccc(OC4CCN(C(=O)c5cocn5)CC4)c(C#N)c3)ncn2)ccc1N1CCN(C)CC1` [Example 54, 5-(6-[[6-methoxy-5-(4-methylpiperazin-1-yl)pyridin-2-yl]amino]pyrimidin-4-yl)-2-([1-[(1,3-oxazol-4-yl)carbonyl]piperidin-4-yl]oxy)benzonitrile], the IC50 in assay [1] and in assay [2] was less than 100 nM each time.
